Experimental data published in ChEMBL document CHEMBL5505957 (Eur J Med Chem, 2024).
Converted amounts (≈) assume the structure as drawn.

How the values were obtained:
[1] = test system: Human immunodeficiency virus 1; test: microbe, parasite or virus in culture; details: Human immunodeficiency virus 1, C8166
[2] = target: T1, Human immunodeficiency virus type 1 protease (Human immunodeficiency virus 1, UniProt Q72874)
[3] = Cytotoxicity against African green monkey Vero E6 cells assessed as reduction in cell viability measured after 72 hrs by MTS assay
[4] = target: Replicase polyprotein 1ab (Severe acute respiratory syndrome coronavirus 2, UniProt P0DTD1)
[5] = test system: Human immunodeficiency virus 1; test: microbe, parasite or virus in culture; details: Human immunodeficiency virus 1, C8166; remark: listed apart in the source
[6] = target: T2, M-phase inducer phosphatase 3 (Homo sapiens, UniProt P30307); test: Inhibition of full-length recombinant human CDC25C incubated for 5 to 8 mins by fluorescence based assay
T2 sequence (P30307 whole entry): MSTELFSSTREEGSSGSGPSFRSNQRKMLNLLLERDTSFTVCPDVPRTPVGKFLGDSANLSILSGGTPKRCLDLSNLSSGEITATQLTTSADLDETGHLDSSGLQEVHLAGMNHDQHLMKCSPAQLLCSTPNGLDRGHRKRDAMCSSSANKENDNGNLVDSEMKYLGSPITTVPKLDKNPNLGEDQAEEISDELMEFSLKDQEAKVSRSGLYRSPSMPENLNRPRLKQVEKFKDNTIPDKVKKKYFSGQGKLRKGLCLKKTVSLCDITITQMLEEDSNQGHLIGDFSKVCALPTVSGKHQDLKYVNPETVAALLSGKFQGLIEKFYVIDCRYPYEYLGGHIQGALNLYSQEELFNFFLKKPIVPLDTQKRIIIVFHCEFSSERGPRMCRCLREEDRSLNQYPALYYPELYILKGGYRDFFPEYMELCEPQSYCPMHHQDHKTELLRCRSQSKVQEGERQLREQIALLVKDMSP

Rattus norvegicus = test: Anti-inflammatory activity against carrageenan-induced paw edema in Sprague-Dawley rat assessed as inhibition of paw edema
Cholinesterase = Cholinesterase (Equus caballus, UniProt P81908); test: Inhibition of equine serum BuChE using butyrylthiocholine chloride as substrate by Ellman's method
[7] = test system: Human immunodeficiency virus 1; test: Anti-HIV activity against wild type HIV-1 IIIB infected in human MT4 cells assessed as inhibition of virus-induced cytopathic effect incubated for 5 days by MTT assay; details: Human immunodeficiency virus 1, IIIB, MT4, 120 h
Protein O-GlcNAcase = target: T3, Protein O-GlcNAcase (Homo sapiens, UniProt O60502)
T3 sequence (O60502 whole entry): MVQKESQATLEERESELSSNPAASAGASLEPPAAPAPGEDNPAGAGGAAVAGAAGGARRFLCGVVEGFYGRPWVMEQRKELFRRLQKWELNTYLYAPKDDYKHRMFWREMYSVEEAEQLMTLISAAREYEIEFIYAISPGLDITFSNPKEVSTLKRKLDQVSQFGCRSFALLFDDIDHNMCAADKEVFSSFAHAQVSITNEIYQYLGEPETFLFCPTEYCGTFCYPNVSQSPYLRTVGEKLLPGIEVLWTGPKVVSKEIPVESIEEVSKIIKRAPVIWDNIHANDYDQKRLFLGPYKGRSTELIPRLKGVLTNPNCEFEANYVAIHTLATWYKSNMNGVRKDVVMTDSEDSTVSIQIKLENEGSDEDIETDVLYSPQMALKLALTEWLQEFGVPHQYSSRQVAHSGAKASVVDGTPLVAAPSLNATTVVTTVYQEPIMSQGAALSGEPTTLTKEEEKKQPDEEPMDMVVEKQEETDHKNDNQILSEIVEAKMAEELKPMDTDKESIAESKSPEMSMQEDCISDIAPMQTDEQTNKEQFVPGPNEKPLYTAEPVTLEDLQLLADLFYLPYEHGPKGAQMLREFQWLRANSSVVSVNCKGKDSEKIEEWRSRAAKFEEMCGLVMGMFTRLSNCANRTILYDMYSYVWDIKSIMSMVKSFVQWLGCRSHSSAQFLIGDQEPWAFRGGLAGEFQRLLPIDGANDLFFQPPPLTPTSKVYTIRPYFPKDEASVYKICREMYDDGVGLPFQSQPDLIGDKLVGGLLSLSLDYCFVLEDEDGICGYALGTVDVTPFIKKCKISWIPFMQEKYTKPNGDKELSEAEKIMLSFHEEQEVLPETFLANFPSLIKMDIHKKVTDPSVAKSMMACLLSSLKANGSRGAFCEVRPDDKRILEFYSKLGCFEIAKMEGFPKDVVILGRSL

[8] = Inhibition of Serratia marcescens Chitinase B
[9] = Inhibition of Serratia marcescens Chitinase A
[10] = test system: Human immunodeficiency virus 1; test: Antiviral activity against HIV-1 infected in human MT4 cells assessed as inhibition of virus-induced cytopathic effect measured after 5 days by spectrophotometric MTT assay; details: Human immunodeficiency virus 1, MT4, 120 h
[11] = target: T1, Human immunodeficiency virus type 1 protease; test: Binding affinity to HIV-1 protease assessed as inhibition constant
[12] = Inhibition of Influenza A virus H1N1 neuraminidase
[13] = Cytotoxicity against MDCK cells assessed as reduction in cell viability incubated for 48 hrs by MTT assay; details: dog
Aspergillus fumigatus [14] = test: Antifungal activity against Aspergillus fumigatus by CLSI based broth microdilution method
Aspergillus fumigatus [15] = test: Antimicrobial activity against Aspergillus fumigatus assessed as fungal growth inhibition

Cholinesterase, sequence (P81908 whole entry): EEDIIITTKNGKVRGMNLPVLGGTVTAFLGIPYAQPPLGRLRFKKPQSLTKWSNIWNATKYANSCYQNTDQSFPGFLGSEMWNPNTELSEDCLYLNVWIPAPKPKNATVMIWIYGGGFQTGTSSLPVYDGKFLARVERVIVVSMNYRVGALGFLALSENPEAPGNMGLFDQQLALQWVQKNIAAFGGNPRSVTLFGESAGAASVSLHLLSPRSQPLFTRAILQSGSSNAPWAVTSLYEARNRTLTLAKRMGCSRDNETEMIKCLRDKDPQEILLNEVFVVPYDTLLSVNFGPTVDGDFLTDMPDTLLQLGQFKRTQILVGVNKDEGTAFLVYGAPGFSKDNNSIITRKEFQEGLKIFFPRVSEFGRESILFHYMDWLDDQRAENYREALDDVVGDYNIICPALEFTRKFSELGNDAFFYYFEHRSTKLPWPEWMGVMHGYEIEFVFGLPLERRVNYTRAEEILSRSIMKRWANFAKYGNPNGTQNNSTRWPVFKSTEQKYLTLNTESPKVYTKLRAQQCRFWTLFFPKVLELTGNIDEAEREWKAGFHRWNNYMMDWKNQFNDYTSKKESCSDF

COc1ccc(S(=O)(=O)N(CC(C)C)C[C@@H](O)[C@H](Cc2ccccc2)n2cc(CNC(=O)N[C@H]3c4ccccc4C[C@H]3O)nn2)cc1
IC50 [1]: 46 nM

COc1ccc(S(=O)(=O)N(CC(C)C)C[C@@H](O)[C@H](Cc2ccccc2)n2cc(CNC(=O)c3ccncc3)nn2)cc1
IC50 [2]: 10 nM

CC1=NN(c2ccc(Cl)cc2)C(=O)/C1=C\c1ccc(OCc2cn(CC(=O)NCc3ccc(C(=O)O)cc3)nn2)cc1
IC50 at 72 h [3]: 22100 nM | IC50 [4]: 3160 nM

COc1ccc(S(=O)(=O)N(CC(C)C)C[C@@H](O)[C@H](Cc2ccccc2)n2cc(CNC(=O)c3ccc(CNC(=O)OC(C)(C)C)cc3)nn2)cc1
IC50 [1]: 52 nM | IC50 [5]: 17 nM

CC(NC1=C(Cl)C(=O)c2cccnc2C1=O)c1cn(Cc2ccc(CO)cc2)nn1 (configuration not stated)
IC50 [6]: 60 nM

Cc1cc(-n2cc(-c3ccc(N)cc3)nn2)n(-c2ccc(S(C)(=O)=O)cc2)n1
ED50 (Rattus norvegicus): 0.12 mg/kg

O=C(CCCCC1CCSS1)NCc1cn(CCCCOc2ccc3c(c2)OCCC3=O)nn1 (configuration not stated)
IC50 (Cholinesterase): 7550 nM

COC(=O)c1ccc(-n2cc(-c3cc(C)c(Oc4ccnc(Nc5ccc(C#N)cc5)n4)c(C)c3)nn2)cc1
IC50 [7]: 13 nM

CO[C@@H]1O[C@H](CO)[C@@H](O)[C@H](O)[C@H]1n1cc(CCc2ccccc2)nn1
IC50 (Protein O-GlcNAcase): 500 nM

CO[C@@H]1O[C@H](CO)[C@@H](O)[C@H](O)[C@H]1n1cc(COc2ccccc2)nn1
IC50 (Protein O-GlcNAcase): 720 nM

CNC(=O)NC(=N)NCCC[C@@H]1NC(=O)[C@@H](C)NC(=O)C[C@@H](C(=O)O)NC(=O)C[C@@H](C(=O)O)NC(=O)[C@H](Cc2ccccc2)N(C)C1=O [ARGIFIN]
IC50 [8]: 6400 nM | IC50 [9]: 25 nM

CNC(=O)NC(=O)NCCC[C@@H](NC(=O)CN)C(=O)N(Cc1ccccc1)Cc1ccccc1
IC50 [8]: 580 nM

Cc1c(Cc2c(Cl)cccc2Cl)nc(SCc2cn(Cc3ccc(S(N)(=O)=O)cc3)nn2)[nH]c1=O
EC50 [10]: 3220 nM

COc1ccc(S(=O)(=O)N(CC(C)C)C[C@@H](O)C(Cc2ccccc2)n2cc(COC(=O)NC3c4ccccc4C[C@H]3O)nn2)cc1 (single isomer, unassigned)
Ki [11]: 1.7 nM | IC50 [2]: 6 nM

CO[C@@H]1O[C@H](CO)[C@@H](O)[C@H](O)[C@H]1n1cc(CNc2ccccc2)nn1
IC50 (Protein O-GlcNAcase): 520 nM

Cc1cc(-n2cc(-c3ccc(F)cc3)nn2)n(-c2ccc(S(C)(=O)=O)cc2)n1
ED50 (Rattus norvegicus): 0.44 mg/kg

CC(=O)O[C@H]1[C@H](OCc2cn(CC3=NCCS3)nn2)OC[C@@H](OC(C)=O)[C@H]1OC(C)=O
IC50 [12]: 1640 nM

Cc1[nH]c(=O)[nH]c(=O)c1CCCc1cn(C2OC(CO)C(O)C2O)nn1 (configuration not stated)
CC50 at 48 h [13]: 79000 nM

COC(=O)[C@@H](C)NP(=O)(OCC1OC(n2cc(CN3CCC(=O)NC3=O)nn2)C(O)C1O)Oc1ccccc1 (some centres not stated)
IC50 [12]: 25000 nM

CNC(=O)NC(=N)NCCC[C@@H](NC(=O)Cn1nncc1CO/N=C/c1ccnc2ccccc12)C(=O)N(Cc1ccccc1)Cc1ccccc1
IC50 [8]: 22 nM

C=CCc1ccc(OCc2cn([C@H]3O[C@H](COC(C)=O)[C@@H](OC(C)=O)[C@H](OC(C)=O)[C@H]3OC(C)=O)nn2)c(OC)c1
IC50 (Aspergillus fumigatus [14]): 5420 nM | MIC (Aspergillus fumigatus [15]): 10.9 µM (≈ 6.25 µg/mL)

COC(=O)[C@@H](NC(=O)OCc1cn([C@@H](Cc2ccccc2)[C@H](O)CN(CC(C)C)S(=O)(=O)c2ccc(OC)cc2)nn1)c1ccccc1
IC50 [2]: 10 nM
